Data taken from patent US8546320B2, “Hsp9O-targeted anti-cancer chimeric peptide” (Kyoto University, priority 2008, dated 2013).
Where a SMILES comes first, the peptide text is derived from it.

Columns and labels:
Caki-1 = assay type: cell-based, human; conditions: Caki-1; for Anti-cancer activity (% relative to wild-type peptide) / Decrease in cell survival rate (% relative to wild-type peptide): wild-type peptide = 100%
U937 = assay: cells; assay type: cell-based, human; conditions: for killing effect compared with the wild-type peptide / Anti-cancer activity (% relative to wild-type peptide) / Decrease in cell survival rate (% relative to wild-type peptide): U937; for Anti-cancer activity (% relative to wild-type peptide) / Decrease in cell survival rate (% relative to wild-type peptide): wild-type peptide = 100%
Description: A total of 3×10^3 cells per well were inoculated onto a 96 well plate, and incubated in a medium containing 10% FBS with 100 μl of a peptide diluted stepwise at 37° C. for 48 to 72 hours. The survival rate of the cells was measured by using WST-8 solution (Cell Count Reagent SF; Nacalai Tesque, Inc.).

cancer cells = assay: Cell viability assay, summary statements on cancer cells; assay type: cell-based; conditions: single mutation in TPR or Antp region of Antp-TPR

Row | Compound | Anti-cancer activity (% relative to wild-type peptide) (Caki-1) [%] | Decrease in cell survival rate (% relative to wild-type peptide) (Caki-1) [%] | Cell Survival Rate (%) (U937) | killing effect compared with the wild-type peptide (U937) | Anti-cancer activity (% relative to wild-type peptide) (U937) [%] | Decrease in cell survival rate (% relative to wild-type peptide) (U937) [%] | effect compared with the wild-type protein (summary of mutations) (cancer cells) | killing effect compared with the wild-type peptide (Caki-1)
1 | CC[C@H](C)[C@H](NC(=O)[C@H](CCCNC(=N)N)NC(=O)[C@H](C)NC(=O)[C@H](Cc1ccc(O)cc1)NC(=O)[C@H](C)NC(=O)[C@H](CCCCN)NC(=O)[C@H](CCCCN)NC(=O)[C@H](CCCCN)NC(=O)[C@H](Cc1c[nH]c2ccccc12)NC(=O)[C@H](CCCCN)NC(=O)[C@H](CCSC)NC(=O)[C@H](CCCNC(=N)N)NC(=O)[C@H](CCCNC(=N)N)NC(=O)[C@H](CC(N)=O)NC(=O)[C@H](CCC(N)=O)NC(=O)[C@H](Cc1ccccc1)NC(=O)[C@H](Cc1c[nH]c2ccccc12)NC(=O)[C@@H](NC(=O)[C@H](CCCCN)NC(=O)[C@@H](NC(=O)[C@H](CCC(N)=O)NC(=O)[C@@H](N)CCCNC(=N)N)[C@@H](C)CC)[C@@H](C)CC)C(=O)N[C@@H](C)C(=O)N[C@@H](CC(N)=O)C(=O)N[C@@H](CO)C(=O)N[C@@H](Cc1ccc(O)cc1)C(=O)N[C@@H](Cc1ccccc1)C(=O)N[C@@H](CCCCN)C(=O)O [Antp-G7A] (H-RQIKIWFQNRRMKWKKKAYARIANSYFK-OH; N-terminus and C-terminus assumed) | 96.23 | 76.07 | 16.85 | increase in effect | 108.32 | 137.88 | effect similar to that of the wild-type protein | 
2 | CC[C@H](C)[C@H](NC(=O)[C@H](CCCNC(=N)N)NC(=O)[C@H](C)NC(=O)[C@H](Cc1ccc(O)cc1)NC(=O)[C@H](C)NC(=O)[C@H](CCCCN)NC(=O)[C@H](CCCCN)NC(=O)[C@H](CCCCN)NC(=O)[C@H](Cc1c[nH]c2ccccc12)NC(=O)[C@H](CCCCN)NC(=O)[C@H](CCSC)NC(=O)[C@H](CCCNC(=N)N)NC(=O)[C@H](CCCNC(=N)N)NC(=O)[C@H](CC(N)=O)NC(=O)[C@H](CCC(N)=O)NC(=O)[C@H](Cc1ccccc1)NC(=O)[C@H](Cc1c[nH]c2ccccc12)NC(=O)[C@@H](NC(=O)[C@H](CCCCN)NC(=O)[C@@H](NC(=O)[C@H](CCC(N)=O)NC(=O)[C@@H](N)CCCNC(=N)N)[C@@H](C)CC)[C@@H](C)CC)C(=O)NCC(=O)N[C@@H](CC(N)=O)C(=O)N[C@@H](CO)C(=O)N[C@@H](Cc1ccc(O)cc1)C(=O)N[C@@H](Cc1ccccc1)C(=O)N[C@@H](CCCNC(=N)N)C(=O)O [Antp-K12R] (H-RQIKIWFQNRRMKWKKKAYARIGNSYFR-OH; N-terminus and C-terminus assumed) | 90.20 | 54.95 | 21.95 | increase in effect | 101.68 | 105.89 | effect similar to that of the wild-type protein | 
3 | CC[C@H](C)[C@H](NC(=O)[C@H](CCCNC(=N)N)NC(=O)CNC(=O)[C@H](Cc1ccc(O)cc1)NC(=O)[C@H](C)NC(=O)[C@H](CCCCN)NC(=O)[C@H](CCCCN)NC(=O)[C@H](CCCCN)NC(=O)[C@H](Cc1c[nH]c2ccccc12)NC(=O)[C@H](CCCCN)NC(=O)[C@H](CCSC)NC(=O)[C@H](CCCNC(=N)N)NC(=O)[C@H](CCCNC(=N)N)NC(=O)[C@H](CC(N)=O)NC(=O)[C@H](CCC(N)=O)NC(=O)[C@H](Cc1ccccc1)NC(=O)[C@H](Cc1c[nH]c2ccccc12)NC(=O)[C@@H](NC(=O)[C@H](CCCCN)NC(=O)[C@@H](NC(=O)[C@H](CCC(N)=O)NC(=O)[C@@H](N)CCCNC(=N)N)[C@@H](C)CC)[C@@H](C)CC)C(=O)NCC(=O)N[C@@H](CC(N)=O)C(=O)N[C@@H](CO)C(=O)N[C@@H](Cc1ccc(O)cc1)C(=O)N[C@@H](Cc1ccccc1)C(=O)N[C@@H](CCCCN)C(=O)O [Antp-A4G] (H-RQIKIWFQNRRMKWKKKAYGRIGNSYFK-OH; N-terminus and C-terminus assumed) | 108.40 | 333.52 | 11.42 |  | 115.40 | 203.46 | effect higher than the wild-type protein | stronger than that of the wild-type peptide
4 | CC[C@H](C)[C@H](NC(=O)[C@H](CCCNC(=N)N)NC(=O)[C@H](C)NC(=O)[C@H](CC(C)C)NC(=O)[C@H](C)NC(=O)[C@H](CCCCN)NC(=O)[C@H](CCCCN)NC(=O)[C@H](CCCCN)NC(=O)[C@H](Cc1c[nH]c2ccccc12)NC(=O)[C@H](CCCCN)NC(=O)[C@H](CCSC)NC(=O)[C@H](CCCNC(=N)N)NC(=O)[C@H](CCCNC(=N)N)NC(=O)[C@H](CC(N)=O)NC(=O)[C@H](CCC(N)=O)NC(=O)[C@H](Cc1ccccc1)NC(=O)[C@H](Cc1c[nH]c2ccccc12)NC(=O)[C@@H](NC(=O)[C@H](CCCCN)NC(=O)[C@@H](NC(=O)[C@H](CCC(N)=O)NC(=O)[C@@H](N)CCCNC(=N)N)[C@@H](C)CC)[C@@H](C)CC)C(=O)NCC(=O)N[C@@H](CC(N)=O)C(=O)N[C@@H](CO)C(=O)N[C@@H](Cc1ccc(O)cc1)C(=O)N[C@@H](Cc1ccccc1)C(=O)N[C@@H](CCCCN)C(=O)O [Antp-Y3L] (H-RQIKIWFQNRRMKWKKKALARIGNSYFK-OH; N-terminus and C-terminus assumed) | 52.87 | 20.23 | 60.94 |  | 50.89 | 38.14 | effective but with a lower effect than the wild-type protein | 
5 | CC[C@H](C)[C@H](NC(=O)[C@H](CCCNC(=N)N)NC(=O)[C@H](C)NC(=O)[C@H](Cc1ccc(O)cc1)NC(=O)[C@H](C)NC(=O)[C@H](CCCCN)NC(=O)[C@H](CCCCN)NC(=O)[C@H](CCCCN)NC(=O)[C@H](Cc1c[nH]c2ccccc12)NC(=O)[C@H](CCCCN)NC(=O)[C@H](CCSC)NC(=O)[C@H](CCCNC(=N)N)NC(=O)[C@H](CCCNC(=N)N)NC(=O)[C@H](CC(N)=O)NC(=O)[C@H](CCC(N)=O)NC(=O)[C@H](Cc1ccccc1)NC(=O)[C@H](Cc1c[nH]c2ccccc12)NC(=O)[C@H](CC(C)C)NC(=O)[C@H](CCCCN)NC(=O)[C@@H](NC(=O)[C@H](CCC(N)=O)NC(=O)[C@@H](N)CCCNC(=N)N)[C@@H](C)CC)C(=O)NCC(=O)N[C@@H](CC(N)=O)C(=O)N[C@@H](CO)C(=O)N[C@@H](Cc1ccc(O)cc1)C(=O)N[C@@H](Cc1ccccc1)C(=O)N[C@@H](CCCCN)C(=O)O [Antp 15L-TPR] (H-RQIKLWFQNRRMKWKKKAYARIGNSYFK-OH; N-terminus and C-terminus assumed) | 73.75 | 31.29 |  |  |  |  | effective but with an effect lower than the wild-type protein | 
6 | CC[C@H](C)[C@H](NC(=O)[C@H](CCCNC(=N)N)NC(=O)[C@H](C)NC(=O)[C@H](Cc1ccc(O)cc1)NC(=O)[C@H](C)NC(=O)[C@H](CCCCN)NC(=O)[C@H](CCCCN)NC(=O)[C@H](CCCCN)NC(=O)[C@H](Cc1c[nH]c2ccccc12)NC(=O)[C@H](CCCCN)NC(=O)[C@H](CCSC)NC(=O)[C@H](CCCNC(=N)N)NC(=O)[C@H](CCCNC(=N)N)NC(=O)[C@H](CC(N)=O)NC(=O)[C@H](CCC(N)=O)NC(=O)[C@H](Cc1ccccc1)NC(=O)[C@H](Cc1ccc(O)cc1)NC(=O)[C@@H](NC(=O)[C@H](CCCCN)NC(=O)[C@@H](NC(=O)[C@H](CCC(N)=O)NC(=O)[C@@H](N)CCCNC(=N)N)[C@@H](C)CC)[C@@H](C)CC)C(=O)NCC(=O)N[C@@H](CC(N)=O)C(=O)N[C@@H](CO)C(=O)N[C@@H](Cc1ccc(O)cc1)C(=O)N[C@@H](Cc1ccccc1)C(=O)N[C@@H](CCCCN)C(=O)O [Antp W6Y-TPR] (H-RQIKIYFQNRRMKWKKKAYARIGNSYFK-OH; N-terminus and C-terminus assumed) | 32.99 | 15.14 |  |  |  |  | effective but with an effect lower than the wild-type protein | 
7 | CC[C@H](C)[C@H](NC(=O)[C@H](CCCNC(=N)N)NC(=O)[C@H](C)NC(=O)[C@H](Cc1ccc(O)cc1)NC(=O)[C@H](C)NC(=O)[C@H](CCCCN)NC(=O)[C@H](CCCCN)NC(=O)[C@H](CCCNC(=N)N)NC(=O)[C@H](Cc1c[nH]c2ccccc12)NC(=O)[C@H](CCCCN)NC(=O)[C@H](CCSC)NC(=O)[C@H](CCCNC(=N)N)NC(=O)[C@H](CCCNC(=N)N)NC(=O)[C@H](CC(N)=O)NC(=O)[C@H](CCC(N)=O)NC(=O)[C@H](Cc1ccccc1)NC(=O)[C@H](Cc1c[nH]c2ccccc12)NC(=O)[C@@H](NC(=O)[C@H](CCCCN)NC(=O)[C@@H](NC(=O)[C@H](CCC(N)=O)NC(=O)[C@@H](N)CCCNC(=N)N)[C@@H](C)CC)[C@@H](C)CC)C(=O)NCC(=O)N[C@@H](CC(N)=O)C(=O)N[C@@H](CO)C(=O)N[C@@H](Cc1ccc(O)cc1)C(=O)N[C@@H](Cc1ccccc1)C(=O)N[C@@H](CCCCN)C(=O)O [Antp K15R-TPR] (H-RQIKIWFQNRRMKWRKKAYARIGNSYFK-OH; N-terminus and C-terminus assumed) | 110.21 | 687.99 |  |  |  |  | effect similar to that of the wild-type protein | stronger than that of the wild-type peptide
